Results: patent US10131669B2, “Pyrazolopyrimidine compounds” (Pfizer Inc., priority 2014, dated 2018)
Structures can show the parent of a compound that is named as a salt.

Legend:
Assay type in all cases: biochemical
Human PDE4A3 = target: T1, Human PDE4A3 (Homo sapiens, UniProt P27815); experiment: PDE4A3 Scintillation Proximity Assay (SPA), inhibition of enzyme activity; settings: geometric mean of 2-7 determinations unless otherwise indicated (b: ≥8 determinations; c: single determination), 1 μM cAMP, 30 min at 25° C., read-out: Human PDE4A FL
T1 construct: His6 (N); FLAG (C); made in house; host or cells: insect cells (baculovirus, pFastBac)
Source text: (§1) Human PDE4A3 coding sequence (amino acids 2 to 825 from the sequence with accession number NP_001104779) was cloned into the baculovirus expression vector pFastBac (Invitrogen) engineered to include an N-terminal His6 affinity tag and a c-terminal FLAG affinity tag to aid in purification. The recombinant Bacmid was isolated and used to transfect insect cells to generate a viral stock. To generate cell paste for purification, insect cells were infected with the virus stock and cells were harvested 72 hours after infection. Insect cell paste was lysed and after centrifugation, the supernatant was batch bound to Ni-NTA agarose (GE Healthcare) and eluted with 250 mM imidazole. This eluate was diluted with FLAG buffer (50 mM Tris HCL pH 7.5, 100 mM NaCl, 5% Glycerol, 1 mM TCEP with protease inhibitors) and batch bound to ant-FLAG M2 agarose (Sigma) overnight at 4° C. The agarose was packed into a column, washed with buffer and eluted with buffer containing elute using 250 ug/ml Flag-peptide. Fractions were analyzed using SDS-PAGE Coomassie blue staining and pooled based on purity. Pooled fractions were chromatographed on a S200 120 ml column (GE Healthcare) in 50 mM Tris HCL pH 7.5, 150 mM NaCl, 10% Glycerol, 2 mM TCEP with protease inhibitors. PDE4A3 fractions were analyzed by SDS-PAGE Coomassie blue staining, pooled based on purity, dialyzed against 50 mM Tris HCL pH 7.5, 100 mM NaCl, 20% Glycerol, 2 mM TCEP, frozen and stored at −80° C.
(§2) The PDE4A3, PDE4B1, PDE4C1 and PDE4D3 assays use the Scintillation Proximity Assay (SPA) technology to measure the inhibition of human recombinant […], PDE4C1, and PDE4D3 enzyme activity by compounds in vitro. The PDE4A1, PDE4B3, PDE4C1, and PDE4D3 assays are run in parallel using identical parameters, except for the concentration of enzyme (80 pM PDE4A3, 40 pM PDE4B3, 40 pM PDE4C1 and 10 pM PDE4D). The assays are performed in a 384-well format with 50 uL assay buffer (50 mM TRIS pH7.5; 1.3 mM MgCl2; 0.01% Brij) containing enough PDE4A3, PDE4B1, PDE4C1, and PDE4D to convert ˜20% of substrate (1 μM cAMP consisting of 20 nM 3H-cAMP+[…] cold cAMP) and a range of inhibitors. Reactions are incubated for 30 min at 25° C. The addition of 20 uL of 8 mg/ml yitrium silicate SPA beads (Perkin Elmer) stops the reaction. The plates are sealed (TopSeal, Perkin Elmer) and the beads are allowed to settle for 8 hrs, after which they are read on the Trilux Microbeta overnight.

Human PDE4B1 = target: T2, Human PDE4B1 (Homo sapiens, UniProt Q07343, S133E/S654A/S659A/S661A); experiment: PDE4B1 Scintillation Proximity Assay (SPA), inhibition of enzyme activity; settings: geometric mean of 2-7 determinations unless otherwise indicated (b: ≥8 determinations; c: single determination); 1 μM cAMP, 30 min at 25° C.; read-out: Human PDE4B FL; IC50
T2 construct: His6 (N); thrombin cleavage site (N); made in house; host or cells: insect cells (baculovirus, pFastBac)
Experimental: The recombinant Bacmid was isolated and used to transfect insect cells to generate a viral stock. To generate cell paste for purification, insect cells were infected with the virus stock and cells were harvested 72 hours after infection as described in Seeger, T. F. et al., Brain Research 985 (2003) 113-126. Insect cell paste was lysed and after centrifugation, the supernatant was chromatographed on Ni-NTA agarose (Qiagen) as described in Seeger, T. F. et al., Brain Research 985 (2003) 113-126. Ni-NTA agarose eluting fractions containing PDE4 were pooled, diluted with Q buffer A (20 mM Tris HCl pH 8, 5% glycerol, 1 mM TCEP) to reduce NaCl to ˜100 mM and loaded on a Source 15Q (GE Healthcare) column. After washing with Q buffer A/10% buffer B to baseline, PDE4D was eluted with a gradient from 10% to 60% of Buffer B (20 mM Tris HCl pH 8, 1 M NaCl, 5% glycerol, 1 mM TCEP). PDE4D fractions were analyzed by SDS-PAGE Coomassie blue staining, pooled based on purity, frozen and stored at −80° C.
as §2

Human PDE4C1 = target: T3, Human PDE4C1 (Homo sapiens, UniProt Q08493); experiment: PDE4C1 Scintillation Proximity Assay (SPA), inhibition of enzyme activity; settings: geometric mean of 2-7 determinations unless otherwise indicated (b: ≥8 determinations; c: single determination), 1 μM cAMP, 30 min at 25° C., read-out: Human PDE4C FL
T3 construct: His6 (N); FLAG (C); made in house; host or cells: insect cells (baculovirus, pFastBac)
Experimental: as §1, with “The” for “Human PDE4A3 coding sequence (amino acids 2 to 825 from the sequence with accession number NP_001104779) was cloned into the baculovirus expression vector pFastBac (Invitrogen) engineered to include an N-terminal His6 affinity tag and a c-terminal FLAG affinity tag to aid in purification. The”, “PDE4C1” for “PDE4A3”
as §2

human PDE4D3 = target: T4, human PDE4D3 (Homo sapiens, UniProt Q08499); experiment: PDE4D3 Scintillation Proximity Assay (SPA), inhibition of enzyme activity; settings: geometric mean of 2-7 determinations unless otherwise indicated (b: ≥8 determinations; c: single determination); 1 μM cAMP, 30 min at 25° C.; read-out: Human PDE4D FL; IC50
T4 construct: His6 (C); made in house; host or cells: insect cells (baculovirus, pFastBac)
Experimental: The recombinant Bacmid was isolated and used to transfect insect cells to generate a viral stock. To generate cell paste for purification, insect cells were infected and cells were harvested 72 hours after infection. Insect cell paste was lysed and after centrifugation, the supernatant was chromatographed on Ni-NTA agarose (Qiagen) as described in Seeger, T. F. et al., Brain Research 985 (2003) 113-126. Ni-NTA agarose eluting fractions containing PDE4 were pooled, diluted with Q Buffer A (50 mM Tris HCl pH 8, 4% glycerol, 100 mM NaCl, 1 mM TCEP, Protease inhibitors EDTA-free (Roche)) to reduce NaCl to ˜200 mM, and loaded on a Q Sepharose (GE Healthcare) column. After washing with Q buffer A to baseline, PDE4D was eluted with a gradient from 10% to 60% of Buffer B (50 mM Tris HCl pH 8, 1 M NaCl, 4% glycerol, 1 mM TCEP). PDE4D fractions were analyzed by SDS-PAGE Coomassie blue staining, pooled based on purity, frozen and stored at −80° C.
as §2

T3 sequence (Q08493 2-712): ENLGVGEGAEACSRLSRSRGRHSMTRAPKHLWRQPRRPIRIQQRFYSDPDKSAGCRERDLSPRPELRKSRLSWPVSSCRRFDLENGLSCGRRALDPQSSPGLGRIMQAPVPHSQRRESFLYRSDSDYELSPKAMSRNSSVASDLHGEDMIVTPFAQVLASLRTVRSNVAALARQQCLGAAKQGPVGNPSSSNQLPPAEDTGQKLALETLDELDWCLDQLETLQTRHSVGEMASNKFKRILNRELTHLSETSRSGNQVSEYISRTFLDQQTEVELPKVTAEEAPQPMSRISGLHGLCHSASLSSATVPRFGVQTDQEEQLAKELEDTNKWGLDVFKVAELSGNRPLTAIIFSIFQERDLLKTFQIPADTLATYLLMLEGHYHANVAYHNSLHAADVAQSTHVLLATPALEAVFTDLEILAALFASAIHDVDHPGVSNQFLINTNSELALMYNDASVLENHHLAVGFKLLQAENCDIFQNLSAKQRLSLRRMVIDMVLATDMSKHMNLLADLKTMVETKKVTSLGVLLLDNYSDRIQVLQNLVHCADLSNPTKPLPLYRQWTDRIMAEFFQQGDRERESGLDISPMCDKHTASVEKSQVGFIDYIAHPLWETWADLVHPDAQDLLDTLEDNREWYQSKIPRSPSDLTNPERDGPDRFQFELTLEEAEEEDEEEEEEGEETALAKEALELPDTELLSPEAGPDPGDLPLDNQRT
T2 sequence (Q07343 122-736 S133E/S654A/S659A/S661A): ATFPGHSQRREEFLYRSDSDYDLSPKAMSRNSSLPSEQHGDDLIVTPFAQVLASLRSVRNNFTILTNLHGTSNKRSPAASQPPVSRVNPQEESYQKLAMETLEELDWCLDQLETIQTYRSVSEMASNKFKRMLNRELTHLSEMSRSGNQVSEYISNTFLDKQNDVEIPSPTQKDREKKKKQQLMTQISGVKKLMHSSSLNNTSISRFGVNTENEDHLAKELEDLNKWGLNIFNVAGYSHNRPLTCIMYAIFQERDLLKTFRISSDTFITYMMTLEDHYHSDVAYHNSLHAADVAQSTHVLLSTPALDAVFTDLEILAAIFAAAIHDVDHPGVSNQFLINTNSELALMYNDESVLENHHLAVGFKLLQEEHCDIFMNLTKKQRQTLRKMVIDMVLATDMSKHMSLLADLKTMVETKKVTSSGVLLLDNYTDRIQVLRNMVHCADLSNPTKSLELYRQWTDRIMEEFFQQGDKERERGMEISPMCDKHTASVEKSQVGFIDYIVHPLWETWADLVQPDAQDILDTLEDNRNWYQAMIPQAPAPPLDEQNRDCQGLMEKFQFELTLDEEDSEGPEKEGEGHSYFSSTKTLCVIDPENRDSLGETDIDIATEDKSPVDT
T4 sequence (Q08499 186-808): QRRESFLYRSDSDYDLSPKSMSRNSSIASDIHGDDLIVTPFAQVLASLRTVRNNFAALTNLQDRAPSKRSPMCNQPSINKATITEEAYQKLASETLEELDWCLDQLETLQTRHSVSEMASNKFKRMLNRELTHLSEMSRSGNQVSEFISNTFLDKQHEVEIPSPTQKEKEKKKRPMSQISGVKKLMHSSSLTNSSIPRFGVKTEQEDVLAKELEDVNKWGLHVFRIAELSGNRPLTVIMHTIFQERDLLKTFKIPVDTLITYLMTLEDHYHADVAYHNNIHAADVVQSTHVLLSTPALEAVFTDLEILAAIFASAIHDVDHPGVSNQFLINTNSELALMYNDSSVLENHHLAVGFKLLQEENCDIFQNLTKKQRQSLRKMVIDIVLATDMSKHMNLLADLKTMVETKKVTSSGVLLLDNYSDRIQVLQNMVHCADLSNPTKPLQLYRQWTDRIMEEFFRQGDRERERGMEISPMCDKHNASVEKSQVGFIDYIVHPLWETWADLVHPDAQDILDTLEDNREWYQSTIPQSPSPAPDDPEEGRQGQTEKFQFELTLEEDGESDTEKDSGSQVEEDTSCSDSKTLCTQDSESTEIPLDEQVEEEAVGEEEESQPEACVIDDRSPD
T1 sequence (P27815 2-825 isoform P27815-6): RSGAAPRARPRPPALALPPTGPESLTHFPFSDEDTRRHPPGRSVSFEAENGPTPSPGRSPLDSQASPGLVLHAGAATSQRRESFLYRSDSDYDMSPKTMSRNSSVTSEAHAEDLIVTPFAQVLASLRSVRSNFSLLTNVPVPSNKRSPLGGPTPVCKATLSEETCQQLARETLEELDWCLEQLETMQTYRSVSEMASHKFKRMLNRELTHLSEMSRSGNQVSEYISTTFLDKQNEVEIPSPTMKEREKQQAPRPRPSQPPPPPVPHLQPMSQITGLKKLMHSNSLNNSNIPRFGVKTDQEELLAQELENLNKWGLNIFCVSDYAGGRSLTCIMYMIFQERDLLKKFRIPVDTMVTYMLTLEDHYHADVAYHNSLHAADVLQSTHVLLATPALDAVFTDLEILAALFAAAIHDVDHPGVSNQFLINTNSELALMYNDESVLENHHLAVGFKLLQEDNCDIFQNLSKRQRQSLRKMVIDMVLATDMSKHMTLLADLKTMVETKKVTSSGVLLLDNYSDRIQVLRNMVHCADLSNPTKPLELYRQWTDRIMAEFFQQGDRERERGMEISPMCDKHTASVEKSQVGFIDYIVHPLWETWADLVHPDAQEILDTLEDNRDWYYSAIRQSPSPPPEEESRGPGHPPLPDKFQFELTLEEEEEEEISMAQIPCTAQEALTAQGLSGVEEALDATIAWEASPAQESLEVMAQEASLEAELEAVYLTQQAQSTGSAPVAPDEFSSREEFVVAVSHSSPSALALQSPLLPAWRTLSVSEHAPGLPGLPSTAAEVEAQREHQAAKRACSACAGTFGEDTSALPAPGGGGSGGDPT

Row | SMILES | IC50 (Human PDE4A3) | IC50 (Human PDE4B1) | IC50 (Human PDE4C1) | IC50 (human PDE4D3)
1 | Cc1cc(Cl)c(F)cc1-c1c(C(=O)NC(C)C)nn2cccnc12 [Example 54, 3-(4-chloro-5-fluoro-2-methylphenyl)-N-(propan-2-yl)pyrazolo[1,5-a]pyrimidine-2-carboxamide] | 12.9 nM | 24.5 nM | 59 nM | 469 nM
2 | O=C(NC1CC1)c1nn2cccnc2c1-c1ccc2ocnc2c1 [Example 60, 3-(1,3-benzoxazol-5-yl)-N-cyclopropylpyrazolo[1,5-a]pyrimidine-2-carboxamide] | 47.1 nM | 226 nM | 650 nM | > 15500 nM
3 | CCNC(=O)c1nn2cccnc2c1-c1ccc(Cl)cc1C [Example 18, 3-(4-chloro-2-methylphenyl)-N-ethylpyrazolo[1,5-a]pyrimidine-2-carboxamide] | 39.9 nM | 150 nM | 97.3 nM | 6880 nM
4 | O=C(c1nn2cccnc2c1-c1ccc(Cl)cc1F)N1CCC1 [Example 20, azetidin-1-yl[3-(4-chloro-2-fluorophenyl)pyrazolo[1,5-a]pyrimidin-2-yl]methanone] | 64.5 nM | 67.4 nM | 111 nM | 10900 nM
5 | CCNC(=O)c1nn2cccnc2c1-c1ccc(Cl)c(F)c1 [Example 53, 3-(4-chloro-3-fluorophenyl)-N-ethylpyrazolo[1,5-a]pyrimidine-2-carboxamide] | 7.66 nM | 32 nM | 21.8 nM | 830 nM
6 | O=C(c1nn2cccnc2c1-c1cc(Cl)ccc1F)N1CCC1 [Example 74, azetidin-1-yl[3-(5-chloro-2-fluorophenyl)pyrazolo[1,5-a]pyrimidin-2-yl]methanone] |  | 45.8 nM |  | 5990 nM
7 | CCNC(=O)c1nn2cccnc2c1-c1ccnc(OC(F)F)c1 [Example 50, 3-[2-(difluoromethoxy)pyridin-4-yl]-N-ethylpyrazolo[1,5-a]pyrimidine-2-carboxamide] | 17.7 nM | 48.3 nM | 70.8 nM | > 4870 nM
8 | COc1cc(-c2c(C(=O)NC3CC3)nn3cccnc23)ccn1 [Example 42, N-cyclopropyl-3-(2-methoxypyridin-4-yl)pyrazolo[1,5-a]pyrimidine-2-carboxamide] | 212 nM | 474 nM | 1190 nM | > 18400 nM
9 | N#Cc1ccc(-c2c(C(=O)N3CCC3)nn3cccnc23)cc1F [Example 15, 4-[2-(azetidin-1-ylcarbonyl)pyrazolo[1,5-a]pyrimidin-3-yl]-2-fluorobenzonitrile] | 109 nM | 51.7 nM | 52.7 nM | 6630 nM
10 | O=C(NC1CC1)c1nn2cccnc2c1-c1ccc(Cl)c(F)c1 [Example 5, 3-(4-Chloro-3-fluorophenyl)-N-cyclopropylpyrazolo[1,5-a]pyrimidine-2-carboxamide] | 3.29 nM | 5.87 nM | 18 nM | 662 nM
11 | O=C(NC1CC1(F)F)c1nn2cccnc2c1-c1ccc(Cl)cc1 (stereo not drawn) [Example 40, 3-(4-chlorophenyl)-N-(2,2-difluorocyclopropyl)pyrazolo[1,5-a]pyrimidine-2-carboxamide] |  | 68 nM |  | 2360 nM
12 | O=C(Nc1nn2cccnc2c1-c1ccc(Cl)c(F)c1)c1ccccc1 [Example 30, N-[3-(4-chloro-3-fluorophenyl)pyrazolo[1,5-a]pyrimidin-2-yl]benzamide] |  | 2180 nM |  | 27000 nM
13 | O=C(NC1CC1)c1nn2cccnc2c1-c1ccnc(OC(F)F)c1 [Example 38, N-cyclopropyl-3-[2-(difluoromethoxy)pyridin-4-yl]pyrazolo[1,5-a]pyrimidine-2-carboxamide, formate salt] |  | 51.1 nM |  | 706 nM
14 | O=C(NC1CC1)c1nn2cccnc2c1-c1cncc(Cl)c1 [Example 29, 3-(5-chloropyridin-3-yl)-N-cyclopropylpyrazolo[1,5-a]pyrimidine-2-carboxamide] |  | 132 nM |  | 3010 nM
15 | O=C(c1nn2cccnc2c1-c1ccnc(OC(F)F)c1)N1CCC1 [Example 37, azetidin-1-yl{3-[2-(difluoromethoxy)pyridin-4-yl]pyrazolo[1,5-a]pyrimidin-2-yl}methanone] |  | 31.5 nM |  | 691 nM
16 | N#Cc1ccc(-c2c(C(=O)NC3CC3)nn3cccnc23)c(F)c1 [Example 76, 3-(4-cyano-2-fluorophenyl)-N-cyclopropylpyrazolo[1,5-a]pyrimidine-2-carboxamide] |  | 443 nM |  | > 30000 nM
17 | O=C(c1nn2cccnc2c1-c1cc(F)c(Cl)c(F)c1)N1CCC1 [Example 41, azetidin-1-yl[3-(4-chloro-3,5-difluorophenyl)pyrazolo[1,5-a]pyrimidin-2-yl]methanone] |  | 5.32 nM |  | 350 nM
18 | O=C(NC1CC1)c1nn2cccnc2c1-c1ccc(Cl)c(Cl)c1 [Example 32, N-cyclopropyl-3-(3,4-dichlorophenyl)pyrazolo[1,5-a]pyrimidine-2-carboxamide, hydrochloride salt] |  | 9.98 nM |  | 720 nM
